Data: patent US9102620B2, “Deuterated N-ethyl-N-phenyl-1,2-dihydro-4-hydroxy-5-chloro-1-methyl-2-oxoquinoline-3-carboxamide, salts and uses thereof” (TEVA PHARMACEUTICAL INDUSTRIES, LTD., priority 2010, dated 2015)
Where two headings read alike, the source gives them in different places.

Legend:
CYP1A2 mRNA = settings: human, 3 days; for mRNA Percent positive control, CYP1A2: hepatocytes
Protocol: (§1) After treatment, the cells were incubated in situ with marker substrates for the analysis of phenacetin O-dealkylation (marker for CYP1A2) and midazolam 1′-hydroxylation (marker for CYP3A4/5) by LC/MS/MS.
(§2) Approximately 24 hours after the last treatment, hepatocytes were lysed in TRIzol reagent after the in situ marker substrate incubations, and cell lysates were stored at −75±5° C. For human hepatocyte preparation H971, media from six wells per treatment group was aspirated, and approximately 132 μL TRIzol were added to each well. The cell lysates were mixed by repeated pipetting. Total RNA was isolated from the cell lysates using the TRIzol protocol (Invitrogen) and was purified using the RNeasy Mini Kit (Qiagen Inc.) according to SOP L6161.02. RNA quality and concentration were determined by measuring absorbance at 260 and 280 nm on a BioTek Synergy HT plate reader (BioTek Instruments, Inc.) with KC4 Signature software (version 3.4 Rev 21, BioTek Instruments, Inc.) according to SOP L6162.02. The analysis of RNA integrity was carried out with the RNA 6000 Nano Assay Kit on an Agilent 2100 Bioanalyzer (Agilent Technologies, Inc.) according to SOP L6162.02. Single-stranded cDNA was prepared from RNA with the RT Master Mix using the AB 7300 Real Time PCR system thermocycling program or AB 7900HT Fast Real Time PCR System thermocycling program (Applied Biosystems) according to SOP L6160.04. […] The RT Master Mix was added to each RNA sample to complete the components of the reaction. No template controls (NTCs) were included in the analysis. For the NTC reactions, RNase-free water was added in place of the RNA sample. The cDNA prepared samples were stored at −20±5° C. prior to analysis by qRT-PCR.
(§3) Quantitative RT-PCR was carried out according to SOP L6160.04 (XenoTech, LLC) and the Applied Biosystems protocol. Each PCR was performed in triplicate. A Primer Mix was prepared for each Gene Expression assay. A typical Primer Mix contained TaqMan Universal Master Mix (1×), Gene Expression Assay (1×, 900 nM forward and reverse primers) and RNase-free water. The Reaction Mix was prepared by adding the Primer Mix to cDNA. A percentage of samples (no less than 10%) included NACs. […] The relative quantity of the target cDNA compared with that of the control cDNA (GAPDH) was determined by the ΔΔCt method (Applied Biosystems User Bulletin #2). Relative quantification measures the change in mRNA expression in a test sample relative to that in a control sample (e.g., DMSO). This method assumes that the efficiency of the target amplification and the efficiency of the endogenous control amplification are approximately equal.
(§4) For qRT-PCR, data were processed using the Sequence Detection System (SDS) Software version 1.4, for Relative Quantification (Applied Biosystems). This software analyzes relative gene expression using the comparative Ct method (ΔΔCt), which relates the PCR signal of the target transcript to the PCR signal of the target in an untreated control. Both the treated sample and the untreated control signals are normalized to the endogenous control (GAPDH), for which expression is not affected by treatment and expression is constant throughout the tissue being tested. […] Calculations are as follows: ΔCt=Ct(target)−Ct(endogenous control) 1. ΔΔCt=ΔCt(treated sample)−ΔCt(untreated control) 2. Fold change in expression=2−ΔΔCt 3.
(§5) The level of mRNA expression relative to the positive control was calculated as follows: […]

CYP3A4 mRNA = settings: human, 3 days; for mRNA Percent positive control, CYP3A4: hepatocytes
Protocol: as §1, §2, §3, §4, §5

[1] = test system: cultured human hepatocytes; type: in vitro ADME
Protocol: Just prior to treatment, on each day of treatment, and just prior to incubation of the marker substrates, spent culture medium (spent dosing media) were collected from the vehicle, laquinimod and Compound 2 treatment groups. Approximately 150 μL was collected from each of three wells, from each aforementioned treatment groups, and pooled for each sample to a final volume of approximately 450 μL. These spent media samples were analyzed for residual laquinimod, Compound 2 and the de-ethylated metabolite (DELAQ).
The concentrations of Compound 2, laquinimod and DELAQ were measured in spent media aliquots from media collected just prior to treatment, on each day of treatment, and just prior to incubation of the marker substrates. The concentration of formed DELAQ was approximately 2-fold higher in the laquinimod media compared to the Compound 2 media. At the 10 μM treatment concentrations of either Compound 2 or laquinimod, the ratio of Compound 2:DELAQ was on average, 40.9 while the ratio of laquinimod:DELAQ was on average, 15.7. This represents an approximately 3-fold increase in the formation of DELAQ from laquinimod compared to Compound 2 and is explained by the presence of deuterium on the ethyl moiety which results in slower N-deethylation.

[2] = test system: human hepatocyte culture H971; assay: Morphology of cultured human hepatocytes after treatment; type: cell-based; settings: within 24 hours after final treatment
Protocol: At the time of isolation the viability of the human hepatocyte preparation was 70.9%. During and after the 72-hour adaptation period, the culture was observed daily by light microscopy and judged to be morphologically normal with confluency adequate for treatment with test and control articles. Within 24 hours after the final treatment, hepatocytes were photographed to document their morphological integrity and any overt signs of toxicity of the test articles. Representative photomicrographs are maintained at the Testing Facility. […] Prior to and during treatment, human hepatocyte cultures formed confluent monolayers with few intercellular spaces; they were cuboidal and contained intact cell membranes and granular cytoplasm with one or two centrally located nuclei.

Structure (SMILES) | mRNA Fold increase, CYP1A2 (CYP1A2 mRNA; 0.01 μM) [fold] | mRNA Fold increase, CYP1A2 (CYP1A2 mRNA; 0.05 μM) [fold] | mRNA Fold increase, CYP1A2 (CYP1A2 mRNA; 0.1 μM) [fold] | mRNA Fold increase, CYP1A2 (CYP1A2 mRNA; 1 μM) [fold] | mRNA Fold increase, CYP1A2 (CYP1A2 mRNA; 10 μM) [fold] | mRNA Percent positive control, CYP1A2 (CYP1A2 mRNA; 0.01 μM) [%] | mRNA Percent positive control, CYP1A2 (CYP1A2 mRNA; 0.05 μM) [%] | mRNA Percent positive control, CYP1A2 (CYP1A2 mRNA; 0.1 μM) [%] | mRNA Percent positive control, CYP1A2 (CYP1A2 mRNA; 1 μM) [%] | mRNA Percent positive control, CYP1A2 (CYP1A2 mRNA; 10 μM) [%] | mRNA Fold increase, CYP3A4 (CYP3A4 mRNA; 0.01 μM) [fold] | mRNA Fold increase, CYP3A4 (CYP3A4 mRNA; 0.05 μM) [fold] | mRNA Fold increase, CYP3A4 (CYP3A4 mRNA; 0.1 μM) [fold] | mRNA Fold increase, CYP3A4 (CYP3A4 mRNA; 1 μM) [fold] | mRNA Fold increase, CYP3A4 (CYP3A4 mRNA; 10 μM) [fold] | mRNA Percent positive control, CYP3A4 (CYP3A4 mRNA; 0.01 μM) [%] | mRNA Percent positive control, CYP3A4 (CYP3A4 mRNA; 0.05 μM) [%] | mRNA Percent positive control, CYP3A4 (CYP3A4 mRNA; 0.1 μM) [%] | mRNA Percent positive control, CYP3A4 (CYP3A4 mRNA; 1 μM) [%] | mRNA Percent positive control, CYP3A4 (CYP3A4 mRNA; 10 μM) [%] | other results
[2H]C([2H])([2H])C([2H])([2H])N(C(=O)c1c(O)c2c(Cl)cccc2n(C)c1=O)c1ccccc1 [Compound 2, N-D5-ethyl-N-phenyl-1,2-dihydro-4-hydroxy-5-chloro-1-methyl-2-oxoquinoline-3-carboxamide] | 2.84 | 4.98 | 7.20 | 13.1 | 24.3 | 24.2 | 52.5 | 81.7 | 159 | 307 | 0.437 | 0.428 | 0.339 | 0.252 | 0.689 | −15.5 | −15.8 | −18.2 | −20.6 | −8.57 | difference in the Compound 2:DELAQ to laquinimod:DELAQ ratio ([1]; 10 μM): ~3 fold; ratio of test article:DELAQ in spent media, on average ([1]; 10 μM): 40.9; cell morphology after treatment [2]: no changes in cell morphology
CCN(C(=O)c1c(O)c2c(Cl)cccc2n(C)c1=O)c1ccccc1 [Laquinimod, N-ethyl-N-phenyl-1,2-dihydro-4-hydroxy-5-chloro-1-methyl-2-oxoquinoline-3-carboxamide] | 4.22 | 7.90 | 9.50 | 16.8 | 20.5 | 42.5 | 91.1 | 112 | 209 | 257 | 0.621 | 0.347 | 0.427 | 0.286 | 0.636 | −10.4 | −18.0 | −15.8 | −19.7 | −10.0 | concentration of formed DELAQ in laquinimod media compared to Compound 2 media [1]: approximately 2 fold; increase in the formation of DELAQ from laquinimod compared to Compound 2 ([1]; 10 μM): approximately 3 fold; ratio of test article:DELAQ in spent media, on average ([1]; 10 μM): 15.7; cell morphology after treatment [2]: no changes in cell morphology
